Assay results as given in US9593123B2, “Triazolo[4,5-D]pyrimidine derivatives” (Hoffmann-La Roche Inc., priority 2013, dated 2017).

Assays:
[1] = biological target: human CB2 receptor (Homo sapiens (Human), UniProt P34972); test: cAMP assay, CHO cells expressing human CB2 receptors; assay type: cell-based; conditions: functional cAMP assay, read-out: CB2 hcAMP EC50
Protocol: (§1) CHO cells expressing human CB1 or CB2 receptors are seeded 17-24 hours prior to the experiment 50.000 cells per well in a black 96 well plate with flat clear bottom (Corning Costar #3904) in DMEM (Invitrogen No. 31331), 1×HT supplement, with 10% fetal calf serum and incubated at 5% CO2 and 37° C. in a humidified incubator. The growth medium was exchanged with Krebs Ringer Bicarbonate buffer with 1 mM IBMX and incubated at 30° C. for 30 min. Compounds were added to a final assay volume of 100 μl and incubated for 30 min at 30° C. Using the cAMP-Nano-TRF detection kit the assay (Roche Diagnostics) was stopped by the addition of 50 μl lysis reagent (Tris, NaCl, 1.5% Triton X100, 2.5% NP40, 10% NaN3) and 50 μl detection solutions (20 μM mAb Alexa700-cAMP 1:1, and 48 μM Ruthenium-2-AHA-cAMP) and shaken for 2 h at room temperature. The time-resolved energy transfer is measured by a TRF reader (Evotec Technologies GmbH), equipped with a ND:YAG laser as excitation source. The plate is measured twice with the excitation at 355 nm and at the emission with a delay of 100 ns and a gate of 100 ns, total exposure time 10 s at 730 (bandwidth 30 nm) or 645 nm (bandwidth 75 nm), respectively. The FRET signal is calculated as follows: FRET=T730-Alexa730-P(T645-B645) with P=Ru730-B730/Ru645-B645, where T730 is the test well measured at 730 nM, T645 is the test well measured at 645 nm, B730 and B645 are the buffer controls at 730 nm and 645 nm, respectively. cAMP content is determined from the function of a standard curve spanning from 10 μM to 0.13 nM cAMP.
(§2) EC50 values were determined using Activity Base analysis (ID Business Solution, Limited). The EC50 values for a wide range of cannabinoid agonists generated from this assay were in agreement with the values published in the scientific literature.

[2] = biological target: human CB1 receptor (Homo sapiens (Human), UniProt P21554); test: cAMP assay, CHO cells expressing human CB1 receptors; assay type: cell-based; conditions: functional cAMP assay, read-out: CB1 hcAMP EC50
human CB1 receptor, sequence (P21554 whole entry): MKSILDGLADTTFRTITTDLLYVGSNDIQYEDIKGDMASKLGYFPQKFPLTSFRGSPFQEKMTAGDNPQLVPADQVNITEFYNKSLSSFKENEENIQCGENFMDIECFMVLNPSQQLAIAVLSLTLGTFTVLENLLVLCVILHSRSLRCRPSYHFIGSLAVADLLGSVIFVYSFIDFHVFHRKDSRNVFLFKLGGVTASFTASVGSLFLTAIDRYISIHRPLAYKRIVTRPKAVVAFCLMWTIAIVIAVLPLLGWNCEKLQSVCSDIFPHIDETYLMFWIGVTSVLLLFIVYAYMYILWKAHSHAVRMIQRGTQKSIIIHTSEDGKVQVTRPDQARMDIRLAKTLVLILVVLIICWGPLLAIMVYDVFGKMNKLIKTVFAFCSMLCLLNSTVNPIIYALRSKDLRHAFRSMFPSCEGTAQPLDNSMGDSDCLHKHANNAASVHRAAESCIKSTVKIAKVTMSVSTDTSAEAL
Protocol: as §1, §2

human CB2 receptor, sequence (P34972 whole entry): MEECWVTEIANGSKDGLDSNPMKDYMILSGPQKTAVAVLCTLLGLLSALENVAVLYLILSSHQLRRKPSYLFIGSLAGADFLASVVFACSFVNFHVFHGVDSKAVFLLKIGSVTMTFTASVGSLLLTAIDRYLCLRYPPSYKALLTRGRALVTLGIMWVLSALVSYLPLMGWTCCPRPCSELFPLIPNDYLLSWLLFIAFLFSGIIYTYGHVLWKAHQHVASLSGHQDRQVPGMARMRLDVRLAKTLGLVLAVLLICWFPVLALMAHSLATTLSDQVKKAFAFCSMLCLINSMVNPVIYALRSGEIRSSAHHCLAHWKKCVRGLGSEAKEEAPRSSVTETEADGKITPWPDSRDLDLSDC

SMILES	EC50 [1]	EC50 [2]
Cn1nnnc1Cn1nnc2c(N3CCC(F)(F)C3)nc(OCC(C)(C)C)nc21 [Example 65, 7-(3,3-Difluoropyrrolidin-1-yl)-5-(2,2-dimethylpropoxy)-3-[(1-methyltetrazol-5-yl)methyl]triazolo[4,5-d]pyrimidine]	11.9 nM	> 10000 nM
C[C@H](Oc1nc(N2CCC(F)(F)C2)c2nnn(CCC(F)(F)F)c2n1)C(F)(F)F [Example 75, 7-(3,3-Difluoropyrrolidin-1-yl)-5-[(2S)-1,1,1-trifluoropropan-2-yl]oxy-3-(3,3,3-trifluoropropyl)triazolo[4,5-d]pyrimidine]	4.3 nM	> 10000 nM
C[C@H](Oc1nc(N2CCC(F)(F)C2)c2nnn(Cc3ccccc3Cl)c2n1)C(F)(F)F [Example 42, 3-[(2-Chlorophenyl)methyl]-7-(3,3-difluoropyrrolidin-1-yl)-5-[(2S)-1,1,1-trifluoropropan-2-yl]oxytriazolo[4,5-d]pyrimidine]	3.3 nM	> 10000 nM
CC(C)Oc1nc(N2CCC(F)(F)C2)c2nnn(Cc3ccccc3Cl)c2n1 [Example 55, 3-[(2-Chlorophenyl)methyl]-7-(3,3-difluoropyrrolidin-1-yl)-5-propan-2-yloxytriazolo [4,5-d]pyrimidine]	1.2 nM	> 10000 nM
CCCCOc1nc(N2CCC(F)(F)C2)c2nnn(Cc3ccccc3Cl)c2n1 [Example 45, 5-Butoxy-3-[(2-chlorophenyl)methyl]-7-(3,3-difluoropyrrolidin-1-yl)triazolo[4,5-d]pyrimidine]	1.2 nM	> 10000 nM
Cc1nonc1Cn1nnc2c(N3CCC(F)(F)C3)nc(C3CC3)nc21 [Example 5, 3-[[5-Cyclopropyl-7-(3,3-difluoropyrrolidin-1-yl)triazolo[4,5-d]pyrimidin-3-yl]methyl]-4-methyl-1,2,5-oxadiazole]	1 nM	> 10000 nM
CC(=O)N[C@H]1CCN(c2nc(NC(C)(C)C)nc3c2nnn3Cc2ccccc2Cl)C1 [Example 97, N-[(3S)-1-[5-(tert-butylamino)-3-[(2-chlorophenyl)methyl]triazolo[4,5-d]pyrimidin-7-yl]pyrrolidin-3-yl]acetamide]	38 nM	> 10000 nM
CC(C)CSc1nc(N2CCC(F)(F)C2)c2nnn(Cc3ccccc3Cl)c2n1 [Example 92, 3-[(2-Chlorophenyl)methyl]-7-(3,3-difluoropyrrolidin-1-yl)-5-(2-methylpropylsulfanyl)triazolo[4,5-d]pyrimidine]	2.5 nM	> 10000 nM
FC1(F)CCN(c2nc(OC3COC3)nc3c2nnn3Cc2ccccc2Cl)C1 [Example 49, 3-[(2-Chlorophenyl)methyl]-7-(3,3-difluoropyrrolidin-1-yl)-5-(oxetan-3-yloxy)triazolo [4,5-d]pyrimidine]	21.9 nM	> 10000 nM
CC(C)Sc1nc(N2CCC(F)(F)C2)c2nnn(Cc3ccccc3Cl)c2n1 [Example 84, 3-[(2-Chlorophenyl)methyl]-7-(3,3-difluoropyrrolidin-1-yl)-5-propan-2-ylsulfanyltriazolo[4,5-d]pyrimidine]	2.3 nM	80 nM
CC(C)S(=O)(=O)c1nc(N2CCC(F)(F)C2)c2nnn(Cc3ccccc3Cl)c2n1 [Example 88, 3-[(2-Chlorophenyl)methyl]-7-(3,3-difluoropyrrolidin-1-yl)-5-propan-2-ylsulfonyltriazolo[4,5-d]pyrimidine]	1.7 nM	> 10000 nM
COCC(C)Oc1nc(N2CCC(F)(F)C2)c2nnn(Cc3ccccc3Cl)c2n1 (stereo not drawn) [Example 57, 3-[(2-Chlorophenyl)methyl]-7-(3,3-difluoropyrrolidin-1-yl)-5-(1-methoxypropan-2-yloxy)triazolo[4,5-d]pyrimidine]	8.8 nM	> 10000 nM
Clc1ccccc1Cn1nnc2c(N3CCCCC3)nc(N3CCCCC3)nc21 [Example 7, 3-[(2-Chlorophenyl)methyl]-5,7-di(piperidin-1-yl)triazolo[4,5-d]pyrimidine]	9.2 nM	> 10000 nM
Cn1nnnc1Cn1nnc2c(N3CCC(F)(F)C3)nc(NC(C)(C)C)nc21 [Example 25, N-tert-Butyl-7-(3,3-difluoropyrrolidin-1-yl)-3-[(1-methyltetrazol-5-yl)methyl]triazolo [4,5-d]pyrimidin-5-amine]	7.5 nM	> 10000 nM
Cc1nonc1Cn1nnc2c(N3CCC(F)(F)C3)nc(NC(C)(C)C)nc21 [Example 26, N-tert-Butyl-7-(3,3-difluoropyrrolidin-1-yl)-3-[(4-methyl-1,2,5-oxadiazol-3-yl)methyl]triazolo[4,5-d]pyrimidin-5-amine]	1 nM	> 10000 nM
Cc1noc(Cn2nnc3c(N4CC[C@@](C)(O)C4)nc(N4CCOCC4)nc32)n1 [Example 39, (3R)-3-Methyl-1-[3-[(3-methyl-1,2,4-oxadiazol-5-yl)methyl]-5-morpholin-4-yltriazolo[4,5-d]pyrimidin-7-yl]pyrrolidin-3-ol]	301 nM	> 10000 nM
FC1(F)CCN(c2nc(NC3CCC3)nc3c2nnn3Cc2ccccc2Cl)C1 [Example 11, 3-[(2-Chlorophenyl)methyl]-N-cyclobutyl-7-(3,3-difluoropyrrolidin-1-yl)triazolo[4,5-d]pyrimidin-5-amine]	2.6 nM	> 10000 nM
CCNc1nc(N2CCC(F)(F)C2)c2nnn(Cc3ccccc3Cl)c2n1 [Example 8, 3-[(2-Chlorophenyl)methyl]-7-(3,3-difluoropyrrolidin-1-yl)-N-ethyltriazolo[4,5-d]pyrimidin-5-amine]	4.5 nM	> 10000 nM
O[C@H]1CCN(c2nc(OCC(F)(F)F)nc3c2nnn3Cc2ccccc2C(F)(F)F)C1 [Example 61, (3S)-1-[5-(2,2,2-Trifluoroethoxy)-3-[[2-(trifluoromethyl)phenyl]methyl]triazolo[4,5-d]pyrimidin-7-yl]pyrrolidin-3-ol]	7.5 nM	> 10000 nM
CC(=O)N[C@H]1CCN(c2nc(OCC(C)(C)C)nc3c2nnn3Cc2nonc2C)C1 [Example 79, N-[(3S)-1-[5-(2,2-Dimethylpropoxy)-3-[(4-methyl-1,2,5-oxadiazol-3-yl)methyl]triazolo [4,5-d]pyrimidin-7-yl]pyrrolidin-3-yl]acetamide]	72.7 nM	> 10000 nM
C[C@@]1(O)CCN(c2nc(N3CCOCC3)nc3c2nnn3Cc2ccccc2Cl)C1 [Example 36, (3R)-1-[3-[(2-Chlorophenyl)methyl]-5-morpholin-4-yltriazolo[4,5-d]pyrimidin-7-yl]-3-methylpyrrolidin-3-ol]	220 nM	> 10000 nM
C[C@@]1(O)CCN(c2nc(N3CCOCC3)nc3c2nnn3Cc2ccccc2C(F)(F)F)C1 [Example 37, (3R)-3-Methyl-1-[5-morpholin-4-yl-3-[[2-(trifluoromethyl)phenyl]methyl]triazolo[4,5-d]pyrimidin-7-yl]pyrrolidin-3-ol]	23.6 nM	> 10000 nM
C[C@]1(O)CCN(c2nc(N3CCOCC3)nc3c2nnn3Cc2ccccc2C(F)(F)F)C1 [Example 33, (3S)-3-Methyl-1-[5-morpholin-4-yl-3-[[2-(trifluoromethyl)phenyl]methyl]triazolo[4,5-d]pyrimidin-7-yl]pyrrolidin-3-ol]	7.2 nM	> 10000 nM
Cn1nnnc1Cn1nnc2c(N3CC[C@H](O)C3)nc(NC(C)(C)C)nc21 [Example 29, (3S)-1-[5-(tert-Butylamino)-3-[(1-methyltetrazol-5-yl)methyl]triazolo[4,5-d]pyrimidin-7-yl]pyrrolidin-3-ol]	48.6 nM	> 10000 nM
CC(Oc1nc(N2CCC(F)(F)C2)c2nnn(Cc3ccccc3Cl)c2n1)C(F)(F)F (stereo not drawn) [Example 41, 3-[(2-Chlorophenyl)methyl]-7-(3,3-difluoropyrrolidin-1-yl)-5-(1,1,1-trifluoropropan-2-yloxy)triazolo[4,5-d]pyrimidine]	8.5 nM	> 10000 nM
Cc1nonc1Cn1nnc2c(N3CCC(F)(F)C3)nc(O[C@@H](C)C(F)(F)F)nc21 [Example 74, 3-[[7-(3,3-Difluoropyrrolidin-1-yl)-5-[(2S)-1,1,1-trifluoropropan-2-yl]oxytriazolo[4,5-d]pyrimidin-3-yl]methyl]-4-methyl-1,2,5-oxadiazole]	1.8 nM	> 10000 nM
Cc1nonc1Cn1nnc2c(N3CCC(F)(F)C3)nc(OCC(C)(C)C)nc21 [Example 67, 3-[[7-(3,3-Difluoropyrrolidin-1-yl)-5-(2,2-dimethylpropoxy)triazolo[4,5-d]pyrimidin-3-yl]methyl]-4-methyl-1,2,5-oxadiazole]	1.7 nM	> 10000 nM
